Entries after “also recorded” stand apart in the source; their conditions may differ.
Experiments:
[1] = system: HS23/36 CPS conjugate antisera; format: binding, rabbit
[2] = system: HS4 CPS conjugate antisera; format: binding, rabbit
[3] = system: HS1 CPS conjugate antisera; format: binding, mouse
[4] = system: HS3 CPS conjugate antisera; format: binding, mouse

SMILES | recognition by HS23/36 CPS-CRM197 conjugate antiserum [1] | recognition by HS4 CPS-CRM197 conjugate antiserum [2] | recognition by HS1 CPS-CRM197 conjugate antiserum [3] | recognition by HS3 CPS-CRM197 conjugate antiserum [4]
COc1ccc(O[C@H]2O[C@H](COP(N)(=O)OC)[C@H](O)[C@H](O)[C@H]2O)cc1 (stereo partly drawn) [MeOPN→6-α-D-Galp-(1→OMP, 4-Methoxyphenyl 6-O-methyl-phosphoramidate-α-D-galactopyranoside] | recognized; also recorded: strongly recognized; also recorded: detected | elicited a response equivalent to anti-HS23/36 CRM197 conjugate; also recorded: strongly recognized | reacted to MeOPN-6-Gal, although to a somewhat lesser extent; also recorded: weaker intensity | did not react
COc1ccc(O[C@H]2O[C@H](CO)[C@H](O)[C@H](O)[C@H]2O)cc1 [α-D-Gal-(1-OMP, 4-methoxyphenyl-α-D-galactopyranoside, reference compound] | No reaction was observed | – | – | –

Reference: US10500261B2 (priority 2014, dated 2019)
